Data published in patent publication US20200345733A1, “Microbicidal Pyrimidine or Triazine Containing Compounds” (Janssen Sciences Ireland UC, priority 2002, published 2020).

How the values were obtained:
[1] = system: T-lymphocyte proliferation; test: Immune suppressive activity in mixed leukocyte cultures (MO-DC stimulators, allogenic CD4(+) T cells); type: cell-based
Protocol: The immune suppressive activity of compound B was measured in mixed leukocyte cultures (MLC), with MO-DC as stimulators and allogenic CD4(+) T cells as responders. Cultures of 3×10^3 MO-DC and 100×10^3 T cells were set-up in 6-fold in a 96-well plate, in the presence or absence of a dilution series of compound B. In a first part of experiments, compound B was removed after 24 hours by washing and cells were cultured for an additional 4 days. In a second part of experiments, compound B remained present during the 5-day culture period. In both set-ups, 1 μCi of [methyl-^3H] thymidine (TRA. 120 from Amersham Pharmacia, Buckinghamshire, U.K.) was added to each well at the fifth day of culture. Plates were harvested 7 hours later and [methyl-^3H] thymidine incorporation was measured in a scintillation counter (Top Count™, Canberra-Packard, Zellik, Belgium) and expressed as counts per minute (CPM). The
Immune Suppressive Concentration (ISC50) is defined as the drug concentration inhibiting 50% of the lymphocyte proliferation. Cellular toxicity was evaluated microscopically by […] staining of co-cultures of MO-DC and allogeneic CD4(+) T cells , cultured for 5 days in the presence of a dilution series of drug. Part of the harvested cells was also used for flowcytometric analysis of lymphocyte blast formation and apopoptosis, based on forward and side scatter.

[2] = target: HIV-1 reverse transcriptase (HIV-1 RT) (Human immunodeficiency virus type 1 group M subtype B, UniProt P04585); test: Steady state kinetics of RNA-dependent DNA polymerization by HIV-1 RT; type: biochemical
Protocol: In a first experiment, the reaction velocity was determined in the presence of different concentrations of compound B and different concentrations of dGTP while the concentration of the p(rC)p(dG) complex was constant.
In a second experimental the reaction velocity was determined in the presence of different concentrations of compound B and different concentrations of p(rC)p(dG) while the concentration of the substrate was constant.

[3] = system: HTLV-IIIb infected CEM T cells; test: Antiviral activity in HTLV-IIIB infected CEM T cells (syncytium formation); type: cell-based, HIV; conditions: Human immunodeficiency virus 1, T-cell, continuous treatment, 50% inhibition of syncytium formation in CEM T cells
Protocol: For experiments with CEM T cells, we used the lymphotropic SI/X4 HIV strain HTLV-IIIB, originally obtained from R. C. Gallo and M. Popovic (NIH, Bethesda, Md.). For experiments with monocyte-derived dendritic cells (MO-DC), the monotropic NSI/R5 HIV strain Ba-L, kindly provided by the NIH AIDS Research and Reference Reagent Program (Rockville, Md) was used. Ba-L stocks were grown and tittered on PHA/IL-2-stimulated peripheral blood mononuclear cells (PBMC) in complete medium, containing RPMI-1640 (Bio-Whittaker, Verviers, Belgium) and 10% bovine calf serum (Hyclone, Utah, US) (Peden K. Virological and Molecular Genetic Techniques for Studies of Established HIV Isolates. 1995, 21-45). The supernatant of these cultures were directly used as cell-free virus to infect MO-DC. To prepare cell-associated HIV Ba-L, non-stimulated PBMC (2×10^6 cells/ml) were incubated overnight with 10^−2 MOI (=multiplicity of infection) of HIV Ba-L in complete medium. Afterwards, cells were extensively washed, frozen in liquid nitrogen and thawed on the day of infection.
As a reference system, CEM T cells (obtained from the American Type culture Collection in Rockville, Md.) were used under previously standardized conditions (Balzarini J, et al. AIDS Res Hum Retroviruses 10 Apr. 2000, 16: 517-528). […]

SMILES: Cc1cc(C)c(Nc2ccnc(Nc3ccc(C#N)cc3)n2)c(C)c1 [compound B, 4-[[4-[(2,4,6-trimethylphenyl)amino]-2-pyrimidinyl]amino]benzonitrile]
- ISC50 (50% Immune Suppressive Concentration) ([1]; drug present continuously during 5-day culture): about 1,500 nM
- ISC50 (50% Immune Suppressive Concentration) ([1]; drug present continuously during 5-day culture, listed as Comp. B): 1,515 nM
- ISC50 (50% Immune Suppressive Concentration) ([1]; drug present during first 24 hours only): ~25,000 nM
- ISC50 (50% Immune Suppressive Concentration) ([1]; drug present during first 24 hours only, listed as Comp. B): 24,886 nM
- Nature of binding to HIV-1 RT ([2]; against dGTP): non-competitive
- Ki ([2]; against dGTP, p(rC)p(dG) constant): 33 nM
- Nature of binding to HIV-1 RT ([2]; against p(rC)p(dG)): non-competitive
- Ki ([2]; against p(rC)p(dG), substrate constant): 28 nM
- Km ([2]; dGTP varied, p(rC)p(dG) constant (Km of the substrate)): 2.51 µM
- Km ([2]; p(rC)p(dG) varied, substrate constant (Km of primer/template)): 10.3 µM
- EC50 [3]: 1 nM
